Experimental data published in US12286440B2, “Penam derivative or salt thereof, pharmaceutical composition, and applications thereof” (priority 2018, dated 2025).
Converted amounts (≈) assume the structure as drawn.

How the values were obtained:
[1] = test system: multidrug-resistant Pseudomonas aeruginosa strain (S-2838 strain); experiment: Test for protection against systemic infection in mouse with multidrug-resistant Pseudomonas aeruginosa; type: in vivo, ICR male SPF mice; conditions: sc, 72 h, read-out: survival rate
Description: As mice, ICR male SPF mice (4 weeks old: 10 mice per group) were used. Clinically isolated multidrug-resistant Pseudomonas aeruginosa strain (S-2838 strain) cultured overnight on a Mueller-Hinton agar plate at 37° C. was cultured on a cation-adjusted Mueller Hinton medium for 5 hours, and then diluted 20-fold with a 10% mucin/phosphate buffer, thereby preparing an inoculum. An infection was induced by intraperitoneally inoculating the mice with the inoculum at 0.5 mL (about 10^6 CFU/mouse). Each test compound was dissolved in physiological saline, and 1 hour after the infection, the compound was subcutaneously administered once to the mice at 40 mg/kg. The control group was administered with the same amount of physiological saline used as a vehicle. The number of surviving mice was recorded 3 days after the infection.
A test for protection against systemic infection in a mouse with multidrug-resistant Pseudomonas aeruginosa was performed in the same manner as in Test Example 2.

[2] = test system: GES-19 and GES-20-containing Pseudomonas aeruginosa strain (S-3759); experiment: Antibacterial activity evaluation test, MIC by CLSI broth microdilution; type: cell-based; conditions: cation-adjusted Mueller Hinton medium, 35° C., 16 to 20 hours
Description: (§1) The minimum inhibitory concentration (MIC) was measured according to the Clinical and Laboratory Standards Institute (CLSI) standard method by using the following broth microdilution method.
(§2) As bacteria, a Pseudomonas aeruginosa strain ATCC27853, an AmpC-derepressed Pseudomonas aeruginosa mutant strain (S-3028), an IMP-1-containing Pseudomonas aeruginosa strain (S-2838), a VIM-2-containing Pseudomonas aeruginosa strain (S-3779), a GES-19 and GES-20-containing Pseudomonas aeruginosa strain (S-3759), a CTX-M-15-containing Escherichia coli strain (TK-1747), a KPC-2-containing Klebsiella pneumoniae strain (Y-995), an OXA-48-containing Klebsiella pneumoniae strain (Y-1062), and an NDM-1-containing Klebsiella pneumoniae strain (Y-1007) were used. The test bacterial cells that had been cultured overnight on a Mueller Hinton agar medium were scraped off, suspended at a density equivalent to 0.5 McFarland standard, and diluted 10-fold, thereby obtaining an inoculum. A cation-adjusted Mueller Hinton medium containing a test compound was inoculated with 0.005 mL of the inoculum, and the cells were cultured at 35° C. for 16 to 20 hours. The minimum drug concentration at which the growth of bacteria was not visually observed was defined as MIC […].
(§3) An antibacterial activity evaluation test was performed in the same manner as in Test Example 1.

[3] = test system: CTX-M-15-containing Escherichia coli strain (TK-1747); experiment: as above; type: cell-based; conditions: cation-adjusted Mueller Hinton medium, 35° C., 16 to 20 hours
Description: as §1, §2, §3

[4] = test system: VIM-2-containing Pseudomonas aeruginosa strain (S-3779); experiment: as above; type: cell-based; conditions: cation-adjusted Mueller Hinton medium, 35° C., 16 to 20 hours
Description: as §1, §2, §3

[5] = test system: IMP-1-containing Pseudomonas aeruginosa strain (S-2838); experiment: as above; type: cell-based; conditions: cation-adjusted Mueller Hinton medium, 35° C., 16 to 20 hours
Description: as §1, §2, §3

[6] = test system: KPC-2-containing Klebsiella pneumoniae strain (Y-995); experiment: as above; type: cell-based; conditions: cation-adjusted Mueller Hinton medium, 35° C., 16 to 20 hours
Description: as §1, §2, §3

[7] = test system: AmpC-derepressed Pseudomonas aeruginosa mutant strain (S-3028); experiment: as above; type: cell-based; conditions: cation-adjusted Mueller Hinton medium, 35° C., 16 to 20 hours
Description: as §1, §2, §3

[8] = test system: Pseudomonas aeruginosa strain ATCC27853; experiment: as above; type: cell-based; conditions: cation-adjusted Mueller Hinton medium, 35° C., 16 to 20 hours
Description: as §1, §2, §3

[9] = test system: OXA-48-containing Klebsiella pneumoniae strain (Y-1062); experiment: as above; type: cell-based; conditions: cation-adjusted Mueller Hinton medium, 35° C., 16 to 20 hours
Description: as §1, §2, §3

[10] = test system: NDM-1-containing Klebsiella pneumoniae strain (Y-1007); experiment: as above; type: cell-based; conditions: cation-adjusted Mueller Hinton medium, 35° C., 16 to 20 hours
Description: as §1, §2, §3

Row | SMILES | responders at 40 mg/kg [1] [%] | other results
1 | CC(C)(O/N=C(\C(=O)N[C@@H]1C(=O)N2C[C@@](C(=O)O)(N3CCN(NC(=O)C(=O)c4ccc(O)c(O)c4Cl)C3=O)S[C@H]12)c1csc(N)n1)C(=O)O [Example 20, (3R,5R,6R)-6-((Z)-2-(2-aminothiazol-4-yl)-2-(((2-carboxypropan-2-yl)oxy)imino)acetamido)-3-(3-(2-(2-chloro-3,4-dihydroxyphenyl)-2-oxoacetamido)-2-oxoimidazolidin-1-yl)-7-oxo-4-thia-1-azabicyclo[3.2.0]heptane-3-carboxylate] | ≥ 90 | 
2 | CC(C)(O/N=C(\C(=O)N[C@@H]1C(=O)N2C[C@@](C(=O)O)(N3CCN(NC(=O)CCNC(=O)/C(=N\O)c4ccc(O)c(O)c4Cl)C3=O)S[C@H]12)c1csc(N)n1)C(=O)O [Example 122, (3R,5R,6R)-6-((Z)-2-(2-aminothiazol-4-yl)-2-(((2-carboxypropan-2-yl)oxy)imino)acetamido)-3-(3-(3-((Z)-2-(2-chloro-3,4-dihydroxyphenyl)-2-(hydroxyimino)acetamido)propanamido)-2-oxoimidazolidin-1-yl)-7-oxo-4-thia-1-azabicyclo[3.2.0]heptane-3-carboxylate] | ≥ 90 | 
3 | CC(C)(O/N=C(\C(=O)N[C@@H]1C(=O)N2C[C@@](C(=O)O)(N3CCN(NC(=O)C(=O)NCCNC(=O)c4ccc(O)c(O)c4Cl)C3=O)S[C@H]12)c1csc(N)n1)C(=O)O [Example 68, (3R,5R,6R)-6-((Z)-2-(2-aminothiazol-4-yl)-2-(((2-carboxypropan-2-yl)oxy)imino)acetamido)-3-(3-(2-((2-(2-chloro-3,4-dihydroxybenzamido)ethyl)amino)-2-oxoacetamido)-2-oxoimidazolidin-1-yl)-7-oxo-4-thia-1-azabicyclo[3.2.0]heptane-3-carboxylate] |  | MIC, Pseudomonas aeruginosa S3759 [2]: 4 µg/mL (≈ 4.84 µM); MIC, Escherichia coli TK-1747 [3]: 1 µg/mL (≈ 1.21 µM); MIC, Pseudomonas aeruginosa S-3779 [4]: 2 µg/mL (≈ 2.42 µM); MIC, Pseudomonas aeruginosa S-2838 [5]: 1 µg/mL (≈ 1.21 µM); MIC, Klebsiella pneumoniae Y-995 [6]: 0.5 µg/mL (≈ 0.604 µM); MIC, Pseudomonas aeruginosa S-3028 [7]: 0.25 µg/mL (≈ 0.302 µM); MIC, Pseudomonas aeruginosa ATCC 27853 [8]: 1 µg/mL (≈ 1.21 µM); MIC, Klebsiella pneumoniae Y-1062 [9]: 1 µg/mL (≈ 1.21 µM); MIC, Klebsiella pneumoniae Y-1007 [10]: < 0.06 µg/mL
4 | CC(C)(O/N=C(\C(=O)N[C@@H]1C(=O)N2C[C@@](C(=O)O)(N3CCN(NC(=O)C(=O)c4ccc(O)c(O)c4Cl)C3=O)S[C@H]12)c1nsc(N)n1)C(=O)O [Example 23, (3R,5R,6R)-6-((Z)-2-(5-amino-1,2,4-thiadiazol-3-yl)-2-(((2-carboxypropan-2-yl)oxy)imino)acetamido)-3-(3-(2-(2-chloro-3,4-dihydroxyphenyl)-2-oxoacetamido)-2-oxoimidazolidin-1-yl)-7-oxo-4-thia-1-azabicyclo[3.2.0]heptane-3-carboxylate] | ≥ 90 | 
5 | CC[C@H](O/N=C(\C(=O)N[C@@H]1C(=O)N2C[C@@](C(=O)O)(N3CCN(NC(=O)C(=O)c4ccc(O)c(O)c4Cl)C3=O)S[C@H]12)c1csc(N)n1)C(=O)O [Example 105, (3R,5R,6R)-6-((Z)-2-(2-aminothiazol-4-yl)-2-(((S)-1-carboxypropoxy)imino)acetamido)-3-(3-(2-(2-chloro-3,4-dihydroxyphenyl)-2-oxoacetamido)-2-oxoimidazolidin-1-yl)-7-oxo-4-thia-1-azabicyclo[3.2.0]heptane-3-carboxylate] | ≥ 90 | 
6 | COC[C@@H](NC(=O)C(=O)c1ccc(O)c(O)c1Cl)C(=O)NN1CCN([C@]2(C(=O)O)CN3C(=O)[C@@H](NC(=O)/C(=N\OC(C)(C)C(=O)O)c4csc(N)n4)[C@H]3S2)C1=O [Example 139, (3R,5R,6R)-6-((Z)-2-(2-aminothiazol-4-yl)-2-(((2-carboxypropan-2-yl)oxy)imino)acetamido)-3-(3-((R)-2-(2-(2-chloro-3,4-dihydroxyphenyl)-2-oxoacetamido)-3-methoxypropanamido)-2-oxoimidazolidin-1-yl)-7-oxo-4-thia-1-azabicyclo[3.2.0]heptane-3-carboxylate] | ≥ 90 | 
7 | Nc1nc(/C(=N/OC2(C(=O)O)CC2)C(=O)N[C@@H]2C(=O)N3C[C@@](C(=O)O)(N4CCN(NC(=O)CCNC(=O)C(=O)c5ccc(O)c(O)c5Cl)C4=O)S[C@H]23)cs1 [Example 31, (3R,5R,6R)-6-((Z)-2-(2-aminothiazol-4-yl)-2-((1-carboxycyclopropoxy)imino)acetamido)-3-(3-(3-(2-(2-chloro-3,4-dihydroxyphenyl)-2-oxoacetamido)propanamido)-2-oxoimidazolidin-1-yl)-7-oxo-4-thia-1-azabicyclo[3.2.0]heptane-3-carboxylate] | ≥ 90 | 
8 | CC(C)(O/N=C(\C(=O)N[C@@H]1C(=O)N2C[C@@](C(=O)O)(N3CCN(NC(=O)c4cc(Cl)c(O)c(O)c4Cl)C3=O)S[C@H]12)c1csc(N)n1)C(=O)O [Example 83, (3R,5R,6R)-6-((Z)-2-(2-aminothiazol-4-yl)-2-(((2-carboxypropan-2-yl)oxy)imino)acetamido)-3-(3-(2,5-dichloro-3,4-dihydroxybenzamido)-2-oxoimidazolidin-1-yl)-7-oxo-4-thia-1-azabicyclo[3.2.0]heptane-3-carboxylate] | ≥ 90 | 
9 | CC(C)(O/N=C(\C(=O)N[C@@H]1C(=O)N2C[C@@](C(=O)O)(N3CCN(NC(=O)C(=O)c4ccc(O)c(O)c4Cl)C3=O)S[C@H]12)c1nc(N)sc1Cl)C(=O)O [Example 22, (3R,5R,6R)-6-((Z)-2-(2-amino-5-chlorothiazol-4-yl)-2-(((2-carboxypropan-2-yl)oxy)imino)acetamido)-3-(3-(2(2-chloro-3,4-dihydroxyphenyl)-2-oxoacetamido)-2-oxoimidazolidin-1-yl)-7-oxo-4-thia-1-azabicyclo[3.2.0]heptane-3-carboxylate] | ≥ 90 | 
10 | CC(C)[C@H](O/N=C(\C(=O)N[C@@H]1C(=O)N2C[C@@](C(=O)O)(N3CCN(NC(=O)C(=O)c4ccc(O)c(O)c4Cl)C3=O)S[C@H]12)c1csc(N)n1)C(=O)O [Example 114, (3R,5R,6R)-6-((Z)-2-(2-aminothiazol-4-yl)-2-(((S)-1-carboxy-2-methylpropoxy)imino)acetamido)-3-(3-(2-(2-chloro-3,4-dihydroxyphenyl)-2-oxoacetamido)-2-oxoimidazolidin-1-yl)-7-oxo-4-thia-1-azabicyclo[3.2.0]heptane-3-carboxylate] | ≥ 90 | 
11 | CC(C)(O/N=C(\C(=O)N[C@@H]1C(=O)N2C[C@@](C(=O)O)(N3CCN(NC(=O)/C(=N\O)c4ccc(O)c(O)c4Cl)C3=O)S[C@H]12)c1csc(N)n1)C(=O)O [Example 117, (3R,5R,6R)-6-((Z)-2-(2-aminothiazol-4-yl)-2-(((2-carboxypropan-2-yl)oxy)imino)acetamido)-3-(3-((Z)-2-(2-chloro-3,4-dihydroxyphenyl)-2-(hydroxyimino)acetamido)-2-oxoimidazolidin-1-yl)-7-oxo-4-thia-1-azabicyclo[3.2.0]heptane-3-carboxylate] | ≥ 90 | 
12 | Nc1nc(/C(=N/OC2(C(=O)O)CC2)C(=O)N[C@@H]2C(=O)N3C[C@@](C(=O)O)(N4CCN(NC(=O)C(=O)c5ccc(O)c(O)c5Cl)C4=O)S[C@H]23)cs1 [Example 21, (3R,5R,6R)-6-((Z)-2-(2-aminothiazol-4-yl)-2-((1-carboxycyclopropoxy)imino)acetamido)-3-(3-(2-(2-chloro-3,4-dihydroxyphenyl)-2-oxoacetamido)-2-oxoimidazolidin-1-yl)-7-oxo-4-thia-1-azabicyclo[3.2.0]heptane-3-carboxylate] | ≥ 90 | 
13 | CC(C)(O/N=C(\C(=O)N[C@@H]1C(=O)N2C[C@@](C(=O)O)(N3CCN(NC(=O)C(=O)c4ccc(O)c(O)c4Cl)C(=O)C3=O)S[C@H]12)c1csc(N)n1)C(=O)O [Example 126, (3R,5R,6R)-6-((Z)-2-(2-aminothiazol-4-yl)-2-(((2-carboxypropan-2-yl)oxy)imino)acetamido)-3-(4-(2-(2-chloro-3,4-dihydroxyphenyl)-2-oxoacetamido)-2,3-dioxopiperazin-1-yl)-7-oxo-4-thia-1-azabicyclo[3.2.0]heptane-3-carboxylate] | ≥ 90 | 
